The text below walks through data of patent US12662489B2 (Sitryx Therapeutics Limited, priority 2023, dated 2026).

The term IC50 denotes the concentration needed to halve the response being measured.

In experiment [1] the target is T1, MTHFD2 recombinant human enzyme (Homo sapiens, UniProt P13995).
T1 sequence (P13995 36-350): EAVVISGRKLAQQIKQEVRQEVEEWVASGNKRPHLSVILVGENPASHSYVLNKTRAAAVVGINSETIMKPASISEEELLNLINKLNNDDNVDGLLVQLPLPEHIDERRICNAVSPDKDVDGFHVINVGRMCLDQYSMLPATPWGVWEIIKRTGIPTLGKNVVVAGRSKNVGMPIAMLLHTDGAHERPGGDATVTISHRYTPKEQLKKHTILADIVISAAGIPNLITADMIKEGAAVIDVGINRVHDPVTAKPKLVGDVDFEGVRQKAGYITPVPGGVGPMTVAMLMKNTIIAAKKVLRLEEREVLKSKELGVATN
Put plainly: MTHFD2 inhibition assay (NAD(P)H-Glo luminescence). Conditions: for MTHFD1/MTHFD2 IC50 ratio: selectivity of MTHFD2 inhibition over MTHFD1, band.

Experiment [2] concerns the target T2, MTHFD1 recombinant human enzyme (Homo sapiens, UniProt P11586).
T2 sequence (P11586 2-291 limits assumed): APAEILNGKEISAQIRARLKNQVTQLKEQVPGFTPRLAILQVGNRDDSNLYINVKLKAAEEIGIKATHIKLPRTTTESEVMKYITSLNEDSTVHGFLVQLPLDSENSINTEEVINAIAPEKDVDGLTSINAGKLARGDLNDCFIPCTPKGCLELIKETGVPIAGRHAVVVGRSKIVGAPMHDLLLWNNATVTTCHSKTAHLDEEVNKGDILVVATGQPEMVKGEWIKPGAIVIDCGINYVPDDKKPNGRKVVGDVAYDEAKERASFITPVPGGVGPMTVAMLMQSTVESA
Put plainly: MTHFD1 inhibition assay (NAD(P)H-Glo luminescence). To be noted: MTHFD1 IC50, recombinant human enzyme 200 nM, NADP, band.

For the compound `COC[C@H]1CN(c2cc(C)c3c4c(c(=O)oc3c2C)CN(C(=O)c2ccc(C(=O)NS(=O)(=O)N(C)C)c(O[C@H]3C[C@@H]5C[C@@H]5C3)c2F)CC4)CCN1C` [Example 67, 2-(((1R,3s,5S)-bicyclo[3.1.0]hexan-3-yl)oxy)-N-(N,N-dimethylsulfamoyl)-3-fluoro-4-(8-((R)-3-(methoxymethyl)-4-methylpiperazin-1-yl)-7,10-dimethyl-5-oxo-1,3,4,5-tetrahydro-2H-chromeno[3,4-c]pyridine-3-carbonyl)benzamide], the IC50 in experiment [1] and in experiment [2] was 1 to 10 nM each time. Further, in experiment [1], the “MTHFD1/MTHFD2 IC50 ratio” value is listed as “F (<3)”.

`COC[C@H]1CN(c2ccc3c4c(c(=O)oc3c2C)CN(C(=O)c2cc(N3CC5CC5C3)c(C(=O)NS(=O)(=O)N(C)C)c(C(F)(F)F)c2)CC4)CCN1C` (stereo partly drawn) [Example 118, 2-(3-azabicyclo[3.1.0]hexan-3-yl)-N-(N,N-dimethylsulfamoyl)-4-(8-((R)-3-(methoxymethyl)-4-methylpiperazin-1-yl)-7-methyl-5-oxo-1,3,4,5-tetrahydro-2H-chromeno[3,4-c]pyridine-3-carbonyl)-6-(trifluoromethyl)benzamide]: in experiment [1], the IC50 fell in the range of 100 to 1000 nM and the “MTHFD1/MTHFD2 IC50 ratio” value is “H (>9.0 to 30)”. The IC50 in experiment [2] lay in the range of 1000 to 5000 nM.

Regarding `COC[C@@H]1CN(c2cc(C)c3c4c(c(=O)oc3c2C)CN(C(=O)c2ccc(C(=O)NS(=O)(=O)N3CCCC3)c(OC3CCC3)c2)CC4)CCN1C` [Example 131, (S)-2-cyclobutoxy-4-(8-(3-(methoxymethyl)-4-methylpiperazin-1-yl)-7,10-dimethyl-5-oxo-1,3,4,5-tetrahydro-2H-chromeno[3,4-c]pyridine-3-carbonyl)-N-(pyrrolidin-1-ylsulfonyl)benzamide], the IC50 in experiment [1] fell in the range of 10 to 100 nM; in experiment [2], 100 to 1000 nM. Also, in experiment [1], the “MTHFD1/MTHFD2 IC50 ratio” value is given as “G (^ 3 to 9.0)”.

As for `COC[C@H]1CN(c2cc(C)c3c4c(c(=O)oc3c2C)CN(C(=O)c2ccc(C(=O)NS(=O)(=O)N(C)C)c(OC3C[C@@H]5C[C@@H]5C3)c2)CC4)CCN1C` (mixture of isomers) [Example 108, 2-(bicyclo[3.1.0]hexan-3-yloxy)-N-(N,N-dimethylsulfamoyl)-4-(8-((R)-3-(methoxymethyl)-4-methylpiperazin-1-yl)-7,10-dimethyl-5-oxo-1,3,4,5-tetrahydro-2H-chromeno[3,4-c]pyridine-3-carbonyl)benzamide], in experiment [1], the IC50 was in the range of 10 to 100 nM and the “MTHFD1/MTHFD2 IC50 ratio” value is reported as “F (<3)”. Besides, the IC50 in experiment [2] is 10 to 100 nM.

On to `COC[C@H]1CN(c2cc(C)c3c4c(c(=O)oc3c2C)CN(C(=O)c2ccc(C(=O)NS(=O)(=O)N(C)C)c(N3CC5CC5C3)c2F)CC4)CCN1C` (stereo partly drawn) [Example 72, 2-(3-azabicyclo[3.1.0]hexan-3-yl)-N-(N,N-dimethylsulfamoyl)-3-fluoro-4-(8-((R)-3-(methoxymethyl)-4-methylpiperazin-1-yl)-7,10-dimethyl-5-oxo-1,3,4,5-tetrahydro-2H-chromeno[3,4-c]pyridine-3-carbonyl)benzamide], for which the IC50 in experiment [1] and in experiment [2] was 1 to 10 nM throughout.

With `COC[C@H]1CN(c2cc(C)c3c4c(c(=O)oc3c2C)CN(C(=O)c2ccc(C(=O)NS(=O)(=O)N(C)C)c(OC3CCC(F)(F)CC3)c2F)CC4)CCN1C` [Example 85, (R)-2-((4,4-difluorocyclohexyl)oxy)-N-(N,N-dimethylsulfamoyl)-3-fluoro-4-(8-(3-(methoxymethyl)-4-methylpiperazin-1-yl)-7,10-dimethyl-5-oxo-1,3,4,5-tetrahydro-2H-chromeno[3,4-c]pyridine-3-carbonyl)benzamide], in experiment [1], the IC50 lay within 1 to 10 nM and the “MTHFD1/MTHFD2 IC50 ratio” value is listed as “F (<3)”. Moreover, the IC50 in experiment [2] was in the range of 1 to 10 nM.

For the compound `COC[C@H]1CN(c2cc(C)c3c4c(c(=O)oc3c2C)CN(C(=O)c2ccc(C(=O)NS(=O)(=O)C3(C)CC3)c(N3C5CCC3CC5)c2)CC4)CCN1C` [Example 48, (R)-2-(7-azabicyclo[2.2.1]heptan-7-yl)-4-(8-(3-(methoxymethyl)-4-methylpiperazin-1-yl)-7,10-dimethyl-5-oxo-1,3,4,5-tetrahydro-2H-chromeno[3,4-c]pyridine-3-carbonyl)-N-((1-methylcyclopropyl)sulfonyl)benzamide], the IC50 in experiment [1] and in experiment [2] was 1 to 10 nM in each case. Also, the “MTHFD1/MTHFD2 IC50 ratio” value in experiment [1] is “F (<3)”.

As to `COC[C@H]1CN(c2cc(C)c3c4c(c(=O)oc3c2C)CN(C(=O)c2ccc(C(=O)NS(=O)(=O)C3(C)CC3)c(OC3CCC3)c2C)CC4)CCN1C` [Example 180, (R)-2-cyclobutoxy-4-(8-(3-(methoxymethyl)-4-methylpiperazin-1-yl)-7,10-dimethyl-5-oxo-1,3,4,5-tetrahydro-2H-chromeno[3,4-c]pyridine-3-carbonyl)-3-methyl-N-((1-methylcyclopropyl)sulfonyl)benzamide], in experiment [1], the IC50 lay within 10 to 100 nM and the “MTHFD1/MTHFD2 IC50 ratio” value is recorded as “G (^ 3 to 9.0)”. The IC50 in experiment [2] is 100 to 1000 nM.

As to `COC[C@H]1CN(c2ccc3c4c(c(=O)oc3c2C)CN(C(=O)c2ccc(C(=O)NS(=O)(=O)N(C)C)c(OC3CCCC3)c2F)CC4)CCN1C` [Example 5, (R)-2-(cyclopentyloxy)-N-(N,N-dimethylsulfamoyl)-3-fluoro-4-(8-(3-(methoxymethyl)-4-methylpiperazin-1-yl)-7-methyl-5-oxo-1,3,4,5-tetrahydro-2H-chromeno[3,4-c]pyridine-3-carbonyl)benzamide], the IC50 was in the range of 10 to 100 nM in experiment [1] and 1 to 10 nM in experiment [2]. For the same compound, in experiment [1], the “MTHFD1/MTHFD2 IC50 ratio” value is reported as “F (<3)”.

Consider `CCOc1c(C(=O)NS(=O)(=O)N2C3CCCC2CC3)ccc(C(=O)N2CCc3c(c(=O)oc4c(C)c(N5CCN(C)[C@@H](COC)C5)cc(C)c34)C2)c1F` [Example 234], for which, in experiment [1], the IC50 was in the range of 10 to 100 nM and the “MTHFD1/MTHFD2 IC50 ratio” value is reported as “F (<3)”. Also, the IC50 in experiment [2] lay in the range of 10 to 100 nM.

Turning to `COC[C@H]1CN(c2cc(C)c3c4c(c(=O)oc3c2C)CN(C(=O)c2ccc(C(=O)NS(=O)(=O)N(C)C)c(OC(C)C)c2F)CC4)CCN1C` [Example 148, (R)-N-(N,N-dimethylsulfamoyl)-3-fluoro-2-isopropoxy-4-(8-(3-(methoxymethyl)-4-methylpiperazin-1-yl)-7,10-dimethyl-5-oxo-1,3,4,5-tetrahydro-2H-chromeno[3,4-c]pyridine-3-carbonyl)benzamide], in experiment [1], the IC50 fell in the range of 1 to 10 nM and the “MTHFD1/MTHFD2 IC50 ratio” value is given as “G (^ 3 to 9.0)”. Further, the IC50 in experiment [2] fell in the range of 10 to 100 nM.

Take `COC[C@H]1CN(c2cc(C)c3c4c(c(=O)oc3c2C)CN(C(=O)c2cc(OC3CCCC3)c(C(=O)NS(=O)(=O)N3CCCC3)cc2F)CC4)CCN1C` [Example 111, (R)-2-(cyclopentyloxy)-5-fluoro-4-(8-(3-(methoxymethyl)-4-methylpiperazin-1-yl)-7,10-dimethyl-5-oxo-1,3,4,5-tetrahydro-2H-chromeno[3,4-c]pyridine-3-carbonyl)-N-(pyrrolidin-1-ylsulfonyl)benzamide]: in experiment [1], the IC50 lay within 10 to 100 nM and the “MTHFD1/MTHFD2 IC50 ratio” value is listed as “F (<3)”. In experiment [2], the concentration for half-maximal inhibition (IC50) lay within 10 to 100 nM.

Regarding `[2H]C([2H])([2H])Oc1c(C(=O)NS(=O)(=O)N2C3CCC2CC3)ccc(C(=O)N2CCc3c(c(=O)oc4c(C)c(N5CCN(C)[C@@H](COC)C5)cc(C)c34)C2)c1F` [Example 252, (R)-N-((7-azabicyclo[2.2.1]heptan-7-yl)sulfonyl)-3-fluoro-2-(methoxy-d3)-4-(8-(3-(methoxymethyl)-4-methylpiperazin-1-yl)-7,10-dimethyl-5-oxo-1,3,4,5-tetrahydro-2H-chromeno[3,4-c]pyridine-3-carbonyl)benzamide], in experiment [1], the IC50 fell in the range of 1 to 10 nM and the “MTHFD1/MTHFD2 IC50 ratio” value was “J (>30)”. Further, in experiment [2], the IC50 was 100 to 1000 nM.

As for `COC[C@H]1CN(c2cc(C)c3c4c(c(=O)oc3c2C)CN(C(=O)c2ccc(C(=O)NS(=O)(=O)N3CCCC3)c(N3CC5CC5C3)c2)CC4)CCN1C` (stereo partly drawn) [Example 126, 2-(3-azabicyclo[3.1.0]hexan-3-yl)-4-(8-((R)-3-(methoxymethyl)-4-methylpiperazin-1-yl)-7,10-dimethyl-5-oxo-1,3,4,5-tetrahydro-2H-chromeno[3,4-c]pyridine-3-carbonyl)-N-(pyrrolidin-1-ylsulfonyl)benzamide], in experiment [1], the IC50 fell in the range of 10 to 100 nM and the “MTHFD1/MTHFD2 IC50 ratio” value is “F (<3)”. Besides, in experiment [2], the IC50 was 10 to 100 nM.

As for `COC[C@H]1CN(c2ccc3c4c(c(=O)oc3c2C)CN(C(=O)c2ccc(C(=O)NS(=O)(=O)N(C)C(C)C)c(OC3CCC3)c2F)CC4)CCN1C` [Example 56, (R)-2-cyclobutoxy-3-fluoro-N-(N-isopropyl-N-methylsulfamoyl)-4-(8-(3-(methoxymethyl)-4-methylpiperazin-1-yl)-7-methyl-5-oxo-1,3,4,5-tetrahydro-2H-chromeno[3,4-c]pyridine-3-carbonyl)benzamide], the IC50 in experiment [1] and in experiment [2] was 1 to 10 nM throughout. For the same compound, in experiment [1], the “MTHFD1/MTHFD2 IC50 ratio” value is reported as “F (<3)”.
